# Assay results from ChEMBL document CHEMBL3763146 (J Med Chem, 2016).
# pEC50, pIC50: −log10 of the molar value.
# Key:
# [1] = target: Beta-3 adrenergic receptor (Canis lupus familiaris, UniProt O02662); experiment: Agonist activity at dog beta3 adrenergic receptor expressed in CHO cells assessed as accumulation of cAMP after 30 mins by TR-FRET assay; type: functional, cell-based
# [2] = target: T1, Beta-3 adrenergic receptor (Homo sapiens, UniProt P13945); experiment: Agonist activity at human adrenergic beta3 receptor expressed in CHO cells assessed as accumulation of cAMP after 30 mins by TR-FRET assay in presence of 40% serum relative to (R)-(-)-isoproterenol; type: functional, cell-based
# Target sequence in this assay (P13945 whole entry, looked up): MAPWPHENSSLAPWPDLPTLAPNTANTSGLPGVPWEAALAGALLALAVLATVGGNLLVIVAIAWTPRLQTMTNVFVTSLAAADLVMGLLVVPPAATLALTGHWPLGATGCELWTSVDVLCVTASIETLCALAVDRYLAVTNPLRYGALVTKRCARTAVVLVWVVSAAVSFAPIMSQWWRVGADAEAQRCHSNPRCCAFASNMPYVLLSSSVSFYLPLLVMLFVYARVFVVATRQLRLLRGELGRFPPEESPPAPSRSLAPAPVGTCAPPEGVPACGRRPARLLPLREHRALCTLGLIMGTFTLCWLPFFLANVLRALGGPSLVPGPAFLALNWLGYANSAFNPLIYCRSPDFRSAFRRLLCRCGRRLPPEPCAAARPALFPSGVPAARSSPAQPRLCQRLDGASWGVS
# [3] = target: Beta-3 adrenergic receptor (Rattus norvegicus) (UniProt P26255); experiment: Agonist activity at rat beta3 adrenergic receptor expressed in CHO cells assessed as accumulation of cAMP after 30 mins by TR-FRET assay in presence of 40% serum relative to (R)-(-)-isoproterenol; type: functional, cell-based
# [4] = target: Beta-3 adrenergic receptor (Macaca mulatta) (UniProt Q28524); experiment: Agonist activity at rhesus monkey beta3 adrenergic receptor expressed in CHO cells assessed as accumulation of cAMP after 30 mins by TR-FRET assay in presence of 40% serum relative to (R)-(-)-isoproterenol; type: functional, cell-based
# [5] = Induction of phospholidosis in human HepG2 cells incubated overnight by […] in presence of fluorescent labeled phospholipid probe NBD-PE; type: cell-based; details: read-out: A50
# [6] = target: Sodium-dependent serotonin transporter (Homo sapiens, UniProt P31645); experiment: Inhibition of human SERT expressed in HEK293 cells preincubated for 30 mins followed by fluorescent substrate addition measured after 30 mins by plate reader analysis; type: cell-based
# [7] = Distribution coefficient, logD of the compound at pH 7.4; type: physicochemical; details: octanol/water
# [8] = target: Sodium channel protein type 2 subunit alpha (Homo sapiens, UniProt Q99250); experiment: Inhibition of human Nav1.2 channel expressed in Xenopus oocytes by two-intracellular microelectrode voltage clamp method; type: cell-based
# [9] = target: Voltage-dependent L-type calcium channel subunit alpha-1C (Homo sapiens, UniProt Q13936); experiment: Displacement of [3H]-diltiazem from human Cav1.2 channel
# [10] = target: Voltage-gated inwardly rectifying potassium channel KCNH2 (Homo sapiens, UniProt Q12809); experiment: Binding affinity to human ERG channel
# [11] = target: T1, Beta-3 adrenergic receptor; experiment: Agonist activity at human beta3 adrenergic receptor expressed in CHO cells assessed as accumulation of cAMP after 30 mins by TR-FRET assay relative to (R)-(-)-isoproterenol; type: functional, cell-based
# Target sequence in this assay (P13945 whole entry, looked up): as above
# [12] = target: T1, Beta-3 adrenergic receptor; experiment: Agonist activity at human beta3 adrenergic receptor expressed in CHO cells assessed as accumulation of cAMP after 30 mins by TR-FRET assay; type: functional, cell-based
# Target sequence in this assay (P13945 whole entry): as the sequence (P13945 whole entry, looked up) above
# [13] = Plasma clearance in rat at 1 mg/kg, iv or 2 mg/kg, po; type: ADME, organism-based
# [14] = Plasma clearance in dog at 0.5 mg/kg, iv or 2 mg/kg, po; type: ADME, organism-based, Canis lupus familiaris
# [15] = Stability in human plasma assessed as parent compound remaining at 24 hrs by LC-MS analysis; type: ADME, cell-free; details: read-out: Stability
# [16] = Plasma clearance in rhesus monkey at 0.5 mg/kg, iv or 2 mg/kg, po; type: ADME, organism-based, Macaca mulatta
# [17] = system: Rattus norvegicus; experiment: Unbound clearance in rat at 1 mg/kg, iv or 2 mg/kg, po; type: ADME, organism-based; details: in vivo
# [18] = system: Canis familiaris; experiment: Unbound clearance in dog at 0.5 mg/kg, iv or 2 mg/kg, po; type: ADME, organism-based, Canis lupus familiaris; details: in vivo
# [19] = system: Rhesus monkey; experiment: Unbound clearance in rhesus monkey at 0.5 mg/kg, iv or 2 mg/kg, po; type: ADME, organism-based, Macaca mulatta; details: in vivo
# [20] = Half life in rat at 1 mg/kg, iv or 2 mg/kg, po; type: ADME, organism-based; details: in vivo
# [21] = Half life in dog at 0.5 mg/kg, iv or 2 mg/kg, po; type: ADME, organism-based, Canis lupus familiaris; details: in vivo
# [22] = Half life in rhesus monkey at 0.5 mg/kg, iv or 2 mg/kg, po; type: ADME, organism-based, Macaca mulatta; details: in vivo
# [23] = system: Rattus norvegicus; experiment: Dose normalized total AUC in rat at 2 mg/kg, po; type: ADME, organism-based; details: in vivo
# [24] = system: Canis familiaris; experiment: Dose normalized total AUC in dog at 2 mg/kg, po; type: ADME, organism-based, Canis lupus familiaris; details: in vivo
# [25] = system: Rhesus monkey; experiment: Dose normalized total AUC in rhesus monkey at 2 mg/kg, po; type: ADME, organism-based, Macaca mulatta; details: in vivo
# [26] = system: Rattus norvegicus; experiment: Dose normalized fAUC in rat at 2 mg/kg, po; type: ADME, organism-based; details: in vivo
# [27] = system: Canis familiaris; experiment: Dose normalized fAUC in dog at 2 mg/kg, po; type: ADME, organism-based, Canis lupus familiaris; details: in vivo
# [28] = system: Rhesus monkey; experiment: Dose normalized fAUC in rhesus monkey at 2 mg/kg, po; type: ADME, organism-based, Macaca mulatta; details: in vivo
# [29] = Oral bioavailability in rat at 2 mg/kg; type: ADME, organism-based; details: in vivo
# [30] = Oral bioavailability in dog at 2 mg/kg; type: ADME, organism-based, Canis lupus familiaris; details: in vivo
# [31] = Oral bioavailability in rhesus monkey at 2 mg/kg; type: ADME, organism-based, Macaca mulatta; details: in vivo
# [32] = Fraction unbound in rat at 1 mg/kg, iv or 2 mg/kg, po; type: ADME, organism-based; details: in vivo
# [33] = Fraction unbound in dog at 0.5 mg/kg, iv or 2 mg/kg, po; type: ADME, organism-based, Canis lupus familiaris; details: in vivo
# [34] = Fraction unbound in rhesus monkey at 0.5 mg/kg, iv or 2 mg/kg, po; type: ADME, organism-based, Macaca mulatta; details: in vivo
# [35] = Intrinsic clearance in rat liver microsomes; type: ADME; details: read-out: CLH
# [36] = Intrinsic clearance in dog liver microsomes; type: ADME, Canis lupus familiaris; details: read-out: CLH
# [37] = Intrinsic clearance in human liver microsomes; type: ADME; details: read-out: CLH
# [38] = Intrinsic clearance in rhesus monkey liver microsomes; type: ADME, Macaca mulatta; details: read-out: CLH
# [39] = Stability in rat plasma assessed as parent compound remaining at 24 hrs by LC-MS analysis; type: ADME, cell-free; details: read-out: Stability
# [40] = Stability in dog plasma assessed as parent compound remaining at 24 hrs by LC-MS analysis; type: ADME, cell-free, Canis lupus familiaris; details: read-out: Stability
# [41] = Stability in rhesus monkey plasma assessed as parent compound remaining at 24 hrs by LC-MS analysis; type: ADME, cell-free, Macaca mulatta; details: read-out: Stability
# [42] = Inhibition of rat choline transporter
# [43] = target: T2, Beta-3 adrenergic receptor (Rattus norvegicus, UniProt P26255); experiment: Agonist activity at rat beta3 adrenergic receptor expressed in CHO cells assessed as accumulation of cAMP after 30 mins by TR-FRET assay; type: functional, cell-based
# [44] = target: Beta-3 adrenergic receptor (Rattus norvegicus) (UniProt P26255); experiment: Agonist activity at rat beta3 adrenergic receptor expressed in CHO cells assessed as accumulation of cAMP after 30 mins by TR-FRET assay relative to (R)-(-)-isoproterenol; type: functional, cell-based
# [45] = target: T3, Beta-3 adrenergic receptor (Macaca mulatta, UniProt Q28524); experiment: Agonist activity at rhesus monkey beta3 adrenergic receptor expressed in CHO cells assessed as accumulation of cAMP after 30 mins by TR-FRET assay; type: functional, cell-based
# [46] = target: Beta-3 adrenergic receptor (Macaca mulatta) (UniProt Q28524); experiment: Agonist activity at rhesus monkey beta3 adrenergic receptor expressed in CHO cells assessed as accumulation of cAMP after 30 mins by TR-FRET assay relative to (R)-(-)-isoproterenol; type: functional, cell-based
# [47] = target: T2, Beta-3 adrenergic receptor; experiment: Agonist activity at rat beta3 adrenergic receptor expressed in CHO cells assessed as accumulation of cAMP after 30 mins by TR-FRET assay in presence of 40% serum; type: functional, cell-based
# [48] = target: T3, Beta-3 adrenergic receptor; experiment: Agonist activity at rhesus monkey beta3 adrenergic receptor expressed in CHO cells assessed as accumulation of cAMP after 30 mins by TR-FRET assay in presence of 40% serum; type: functional, cell-based
# [49] = target: T1, Beta-3 adrenergic receptor; experiment: Agonist activity at human adrenergic beta3 receptor expressed in CHO cells assessed as accumulation of cAMP after 30 mins by TR-FRET assay in presence of 40% serum; type: functional, cell-based
# Target sequence in this assay (P13945 whole entry): as the sequence (P13945 whole entry, looked up) above
# [50] = system: Rattus norvegicus; experiment: Increase in detrusor muscle relaxation in iv infused Sprague-Dawley rat acetic acid-induced bladder hyperreflexia model assessed as decrease in micturition pressure measured over 30 to 45 mins; type: functional, organism-based
# [51] = system: Rattus norvegicus; experiment: Increase in detrusor muscle relaxation in iv infused Sprague-Dawley rat acetic acid-induced bladder hyperreflexia model assessed as increase in functional bladder capacity measured over 30 to 45 mins; type: organism-based
# [52] = target: Beta-2 adrenergic receptor (Homo sapiens, UniProt P07550)
# Description: Displacement of [125]I-cyanopindolol from human recombinant beta2 adrenergic receptor after 1 hr by scintillation counting method
# [53] = target: Beta-1 adrenergic receptor (Homo sapiens, UniProt P08588)
# Description: Displacement of [125]I-cyanopindolol from recombinant human beta1 adrenergic receptor after 1 hr by scintillation counting method
# Chain of Beta-3 adrenergic receptor (Macaca mulatta) (Q28524 whole entry): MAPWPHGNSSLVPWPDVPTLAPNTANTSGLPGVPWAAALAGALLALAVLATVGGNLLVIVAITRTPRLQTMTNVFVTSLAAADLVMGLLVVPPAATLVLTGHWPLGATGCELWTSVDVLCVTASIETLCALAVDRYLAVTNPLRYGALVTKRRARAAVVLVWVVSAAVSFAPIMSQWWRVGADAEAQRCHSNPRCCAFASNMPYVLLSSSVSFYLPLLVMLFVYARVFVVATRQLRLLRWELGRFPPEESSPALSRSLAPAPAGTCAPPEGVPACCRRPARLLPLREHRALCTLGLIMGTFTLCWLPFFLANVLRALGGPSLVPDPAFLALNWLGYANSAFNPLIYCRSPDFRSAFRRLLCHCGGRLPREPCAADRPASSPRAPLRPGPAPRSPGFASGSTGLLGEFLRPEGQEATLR
# T3 sequence (Q28524 whole entry): as above
# Chain of Beta-3 adrenergic receptor (Rattus norvegicus) (P26255 whole entry): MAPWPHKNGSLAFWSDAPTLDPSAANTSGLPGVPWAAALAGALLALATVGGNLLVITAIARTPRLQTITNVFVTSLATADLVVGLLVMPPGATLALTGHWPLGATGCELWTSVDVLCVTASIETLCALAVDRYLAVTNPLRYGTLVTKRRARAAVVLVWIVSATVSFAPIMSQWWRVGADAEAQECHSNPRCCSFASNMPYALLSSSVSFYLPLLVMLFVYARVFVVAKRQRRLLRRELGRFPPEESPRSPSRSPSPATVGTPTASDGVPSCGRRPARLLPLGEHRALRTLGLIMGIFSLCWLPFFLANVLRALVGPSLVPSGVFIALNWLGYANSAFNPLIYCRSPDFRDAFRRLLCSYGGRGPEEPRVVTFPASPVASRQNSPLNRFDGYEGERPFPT
# T2 sequence (P26255 whole entry): as above
# Chain of Sodium channel protein type 2 subunit alpha (Q99250 whole entry, looked up): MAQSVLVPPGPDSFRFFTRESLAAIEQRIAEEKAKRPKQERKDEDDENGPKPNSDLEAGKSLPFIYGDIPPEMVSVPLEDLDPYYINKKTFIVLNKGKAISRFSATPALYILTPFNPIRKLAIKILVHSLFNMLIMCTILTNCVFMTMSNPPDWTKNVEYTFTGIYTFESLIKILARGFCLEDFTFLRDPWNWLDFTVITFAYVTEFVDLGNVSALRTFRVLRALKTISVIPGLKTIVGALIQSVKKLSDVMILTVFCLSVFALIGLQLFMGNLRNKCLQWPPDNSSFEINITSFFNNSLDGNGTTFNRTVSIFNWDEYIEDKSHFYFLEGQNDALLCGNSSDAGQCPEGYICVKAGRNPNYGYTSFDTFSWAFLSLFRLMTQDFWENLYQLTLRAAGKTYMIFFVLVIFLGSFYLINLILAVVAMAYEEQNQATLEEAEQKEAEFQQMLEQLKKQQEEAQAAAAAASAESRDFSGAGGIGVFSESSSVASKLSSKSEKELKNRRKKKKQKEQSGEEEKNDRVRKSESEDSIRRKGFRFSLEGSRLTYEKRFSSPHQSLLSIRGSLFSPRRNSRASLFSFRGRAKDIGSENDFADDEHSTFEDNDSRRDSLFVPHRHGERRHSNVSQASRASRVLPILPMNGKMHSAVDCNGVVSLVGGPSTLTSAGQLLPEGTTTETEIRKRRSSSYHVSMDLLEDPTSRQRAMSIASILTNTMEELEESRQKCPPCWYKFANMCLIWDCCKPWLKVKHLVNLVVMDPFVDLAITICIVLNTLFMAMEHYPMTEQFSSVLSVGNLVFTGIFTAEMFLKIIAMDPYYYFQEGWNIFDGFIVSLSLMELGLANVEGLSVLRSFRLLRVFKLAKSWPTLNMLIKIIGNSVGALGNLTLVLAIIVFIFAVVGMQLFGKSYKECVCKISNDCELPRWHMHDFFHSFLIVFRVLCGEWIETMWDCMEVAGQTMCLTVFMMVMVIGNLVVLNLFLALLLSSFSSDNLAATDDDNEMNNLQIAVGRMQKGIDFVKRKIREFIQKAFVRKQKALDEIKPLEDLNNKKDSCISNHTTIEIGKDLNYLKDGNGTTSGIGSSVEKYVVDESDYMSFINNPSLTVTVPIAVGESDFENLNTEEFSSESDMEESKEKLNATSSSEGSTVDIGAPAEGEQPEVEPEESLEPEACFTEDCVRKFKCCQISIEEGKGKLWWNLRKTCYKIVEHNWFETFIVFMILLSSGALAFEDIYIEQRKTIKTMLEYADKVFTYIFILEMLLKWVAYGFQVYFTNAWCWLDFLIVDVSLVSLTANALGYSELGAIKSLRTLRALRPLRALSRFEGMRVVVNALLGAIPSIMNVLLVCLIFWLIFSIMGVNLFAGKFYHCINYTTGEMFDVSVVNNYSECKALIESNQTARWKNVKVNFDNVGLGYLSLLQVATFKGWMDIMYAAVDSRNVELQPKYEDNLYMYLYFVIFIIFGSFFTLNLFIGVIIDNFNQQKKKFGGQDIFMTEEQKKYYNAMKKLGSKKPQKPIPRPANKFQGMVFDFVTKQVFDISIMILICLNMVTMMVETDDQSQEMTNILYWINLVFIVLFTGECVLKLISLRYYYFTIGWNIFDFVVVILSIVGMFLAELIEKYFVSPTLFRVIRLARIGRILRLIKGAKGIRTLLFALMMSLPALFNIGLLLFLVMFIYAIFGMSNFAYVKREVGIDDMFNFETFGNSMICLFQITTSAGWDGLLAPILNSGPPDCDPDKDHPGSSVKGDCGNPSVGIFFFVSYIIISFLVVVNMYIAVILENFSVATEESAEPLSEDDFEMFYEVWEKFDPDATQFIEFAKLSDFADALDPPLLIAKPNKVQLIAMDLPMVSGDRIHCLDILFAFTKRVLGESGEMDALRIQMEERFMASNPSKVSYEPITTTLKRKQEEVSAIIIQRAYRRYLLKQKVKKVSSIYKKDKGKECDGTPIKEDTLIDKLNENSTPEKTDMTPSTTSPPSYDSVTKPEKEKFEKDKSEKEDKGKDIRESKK
# Chain of Beta-2 adrenergic receptor (P07550 whole entry): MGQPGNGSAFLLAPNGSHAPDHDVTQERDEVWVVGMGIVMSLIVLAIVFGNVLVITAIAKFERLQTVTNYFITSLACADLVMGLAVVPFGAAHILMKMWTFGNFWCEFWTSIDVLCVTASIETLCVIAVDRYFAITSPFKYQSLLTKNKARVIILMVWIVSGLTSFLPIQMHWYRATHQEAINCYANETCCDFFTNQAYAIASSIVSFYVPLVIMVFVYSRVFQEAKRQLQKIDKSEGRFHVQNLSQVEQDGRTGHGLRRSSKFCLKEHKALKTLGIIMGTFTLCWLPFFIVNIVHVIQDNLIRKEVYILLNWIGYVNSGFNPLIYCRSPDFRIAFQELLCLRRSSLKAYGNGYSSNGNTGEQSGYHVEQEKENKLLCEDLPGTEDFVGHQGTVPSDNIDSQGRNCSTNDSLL
# Chain of Beta-3 adrenergic receptor (Canis lupus familiaris, UniProt O02662) (O02662 whole entry): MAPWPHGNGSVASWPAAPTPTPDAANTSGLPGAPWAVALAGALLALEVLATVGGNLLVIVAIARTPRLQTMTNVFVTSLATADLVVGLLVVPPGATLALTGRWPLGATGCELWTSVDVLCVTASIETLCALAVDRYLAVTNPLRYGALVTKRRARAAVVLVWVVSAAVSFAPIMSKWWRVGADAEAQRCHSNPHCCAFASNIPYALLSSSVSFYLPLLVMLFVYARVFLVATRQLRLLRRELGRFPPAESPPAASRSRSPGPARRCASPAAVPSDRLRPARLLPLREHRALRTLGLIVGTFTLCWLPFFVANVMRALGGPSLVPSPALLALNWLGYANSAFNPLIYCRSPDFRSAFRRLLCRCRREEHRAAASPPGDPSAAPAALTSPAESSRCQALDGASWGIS
# Chain of Sodium-dependent serotonin transporter (P31645 whole entry): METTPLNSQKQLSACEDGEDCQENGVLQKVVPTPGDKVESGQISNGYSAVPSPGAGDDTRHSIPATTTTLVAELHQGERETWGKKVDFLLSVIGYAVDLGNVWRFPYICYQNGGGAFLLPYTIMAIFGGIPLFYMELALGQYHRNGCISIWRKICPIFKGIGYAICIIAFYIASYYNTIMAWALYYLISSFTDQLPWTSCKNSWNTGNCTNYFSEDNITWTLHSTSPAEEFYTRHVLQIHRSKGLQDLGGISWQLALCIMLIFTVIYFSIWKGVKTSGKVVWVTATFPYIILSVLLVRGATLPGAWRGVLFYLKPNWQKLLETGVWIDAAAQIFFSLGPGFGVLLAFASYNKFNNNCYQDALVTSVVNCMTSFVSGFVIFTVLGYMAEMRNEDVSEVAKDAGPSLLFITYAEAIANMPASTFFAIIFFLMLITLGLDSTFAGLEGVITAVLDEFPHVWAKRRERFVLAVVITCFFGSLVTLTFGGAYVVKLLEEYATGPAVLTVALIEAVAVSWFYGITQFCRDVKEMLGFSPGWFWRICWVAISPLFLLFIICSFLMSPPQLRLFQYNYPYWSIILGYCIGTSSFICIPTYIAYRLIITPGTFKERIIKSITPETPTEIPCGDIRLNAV
structure (smiles),measurement,setting,value
C[C@@H](C(=O)Nc1ccc(C[C@@H]2CC[C@H]([C@H](O)c3ccccc3)N2)cc1)n1ncccc1=O,pEC50,[1],7.41
same,max activation,[2],98%
same,max activation,[3],83%
same,max activation,[4],91%
same,AC50,[5],42000 nM
same,pIC50,[6],< 5.00
same,logD,[7],1.3
same,pIC50,[8],< 4.52
same,pIC50,[9],< 4.52
same,pIC50,[10],< 4.52
same,max activation,[11],92%
same,pEC50,[12],8.57
same,clearance,[13],36 mL/min/kg
same,clearance,[14],23 mL/min/kg
same,remaining at 24 h,[15],100%
same,clearance,[16],33 mL/min/kg
same,CL free,[17],180 mL/min/kg
same,CL free,[18],59 mL/min/kg
same,CL free,[19],46 mL/min/kg
same,half-life,[20],2 h
same,half-life,[21],9 h
same,half-life,[22],9 h
same,AUC/dose,[23],100 nM·h/mg/kg
same,AUC/dose,[24],290 nM·h/mg/kg
same,AUC/dose,[25],300 nM·h/mg/kg
same,fAUC/dose,[26],20 nM·h/mg/kg
same,fAUC/dose,[27],113 nM·h/mg/kg
same,fAUC/dose,[28],213 nM·h/mg/kg
same,bioavailability,[29],10%
same,bioavailability,[30],91%
same,bioavailability,[31],29%
same,fraction unbound,[32],0.2
same,fraction unbound,[33],0.39
same,fraction unbound,[34],0.71
same,CLint scaled,[35],31 mL/min/kg
same,CLint scaled,[36],34 mL/min/kg
same,CLint scaled,[37],10 mL/min/kg
same,CLint scaled,[38],17 mL/min/kg
same,remaining at 24 h,[39],95%
same,remaining at 24 h,[40],77%
same,remaining at 24 h,[41],99%
same,pIC50,[42],5.64
same,pEC50,[43],6.27
same,max activation,[44],85%
same,pEC50,[45],8.60
same,max activation,[46],91%
same,pEC50,[47],6.61
same,pEC50,[48],7.92
same,pEC50,[49],8.68
same,Activity,[50],Dose-dependent effect
same,Activity,[51],Dose-dependent effect
same,pIC50,[52],< 4.70
same,pIC50,[53],< 4.70
